According to paper PMC7265341, “Quantifying CDK inhibitor selectivity in live cells” (Nature Communications, 2020):
Read-outs that look alike come from different tables or passages of the source.

Experiments:
CDK19/Cyclin C = CDK19/Cyclin C (Homo sapiens, UniProt Q9BWU1); assay: NanoBRET live-cell target engagement, NanoLuc-CDK19/Cyclin C in HEK-293
CDK9/Cyclin K = CDK9/Cyclin K (Homo sapiens, UniProt P50750); assay: NanoBRET live-cell target engagement, NanoLuc-CDK9/Cyclin K in HEK-293; type: binding; conditions: CDK9/K, 10µM
CDK7 = CDK7 (Homo sapiens, UniProt P50613); assay: NanoBRET live-cell target engagement, NanoLuc-CDK7 in HEK-293; type: binding; conditions: CDK7
CDK7, sequence (P50613 whole entry): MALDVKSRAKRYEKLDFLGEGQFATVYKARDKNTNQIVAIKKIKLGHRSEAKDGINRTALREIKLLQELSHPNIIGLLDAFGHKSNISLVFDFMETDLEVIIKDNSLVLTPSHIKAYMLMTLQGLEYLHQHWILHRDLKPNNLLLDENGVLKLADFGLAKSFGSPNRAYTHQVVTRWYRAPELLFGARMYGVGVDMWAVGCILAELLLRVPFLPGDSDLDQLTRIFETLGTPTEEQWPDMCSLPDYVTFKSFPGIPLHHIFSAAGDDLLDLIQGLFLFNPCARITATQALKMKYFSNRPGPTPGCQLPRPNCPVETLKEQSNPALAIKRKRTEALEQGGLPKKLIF

CDK8/Cyclin C = CDK8/Cyclin C (Homo sapiens, UniProt P49336); assay: NanoBRET live-cell target engagement, NanoLuc-CDK8/Cyclin C in HEK-293; type: binding
CDK11B/Cyclin L2 = CDK11B/Cyclin L2 (Homo sapiens, UniProt P21127); assay: NanoBRET live-cell target engagement, CDK11B-NanoLuc/Cyclin L2 in HEK-293; type: binding; conditions: CDK11b/L2, 10µM
CDK11B/Cyclin L2, sequence (P21127 1-782 isoform P21127-2): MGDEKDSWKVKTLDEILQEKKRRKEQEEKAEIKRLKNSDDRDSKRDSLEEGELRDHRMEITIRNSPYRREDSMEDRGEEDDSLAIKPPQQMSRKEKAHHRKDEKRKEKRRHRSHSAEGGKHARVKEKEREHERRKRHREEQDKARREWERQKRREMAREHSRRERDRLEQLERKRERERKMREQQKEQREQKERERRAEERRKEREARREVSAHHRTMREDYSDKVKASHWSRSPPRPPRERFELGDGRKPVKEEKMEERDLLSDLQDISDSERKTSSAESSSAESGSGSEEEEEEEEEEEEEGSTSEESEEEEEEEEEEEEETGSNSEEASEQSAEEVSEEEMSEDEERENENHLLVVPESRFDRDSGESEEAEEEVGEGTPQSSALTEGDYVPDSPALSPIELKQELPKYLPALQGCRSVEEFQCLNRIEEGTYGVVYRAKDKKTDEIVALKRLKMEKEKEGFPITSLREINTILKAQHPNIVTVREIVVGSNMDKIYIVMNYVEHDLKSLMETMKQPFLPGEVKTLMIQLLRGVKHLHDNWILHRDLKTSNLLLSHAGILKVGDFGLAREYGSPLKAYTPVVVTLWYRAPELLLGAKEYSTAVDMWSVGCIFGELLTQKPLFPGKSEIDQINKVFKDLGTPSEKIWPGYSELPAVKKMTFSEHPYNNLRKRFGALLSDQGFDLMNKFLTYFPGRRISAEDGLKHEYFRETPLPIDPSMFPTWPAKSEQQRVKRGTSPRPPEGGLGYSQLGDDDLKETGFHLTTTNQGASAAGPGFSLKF

CDK20/Cyclin H = CDK20/Cyclin H (Homo sapiens, UniProt Q8IZL9); assay: NanoBRET live-cell target engagement, NanoLuc-CDK20/Cyclin H in HEK-293; type: binding; conditions: CDK20/H, 10µM
CDK5/CDK5R1 = CDK5/CDK5R1 (Homo sapiens, UniProt Q00535); assay: NanoBRET live-cell target engagement, CDK5-NanoLuc/CDK5R1 in HEK-293; type: binding; conditions: CDK5/CDK5R1, 10µM
CDK10/Cyclin L2 = CDK10/Cyclin L2 (Homo sapiens, UniProt Q15131); assay: NanoBRET live-cell target engagement, CDK10-NanoLuc/Cyclin L2 in HEK-293; conditions: 10µM
CDK13/Cyclin K = CDK13/Cyclin K (Homo sapiens, UniProt Q14004); assay: NanoBRET live-cell target engagement, CDK13-NanoLuc/Cyclin K in HEK-293; type: binding; conditions: CDK13/K, 10µM
CDK11A/Cyclin L2 = target: T1, CDK11A/Cyclin L2 (Homo sapiens, UniProt Q9UQ88); assay: NanoBRET live-cell target engagement, CDK11A-NanoLuc/Cyclin L2 in HEK-293; type: binding; conditions: CDK11a/L2, 10µM
T1 sequence (Q9UQ88 1-783): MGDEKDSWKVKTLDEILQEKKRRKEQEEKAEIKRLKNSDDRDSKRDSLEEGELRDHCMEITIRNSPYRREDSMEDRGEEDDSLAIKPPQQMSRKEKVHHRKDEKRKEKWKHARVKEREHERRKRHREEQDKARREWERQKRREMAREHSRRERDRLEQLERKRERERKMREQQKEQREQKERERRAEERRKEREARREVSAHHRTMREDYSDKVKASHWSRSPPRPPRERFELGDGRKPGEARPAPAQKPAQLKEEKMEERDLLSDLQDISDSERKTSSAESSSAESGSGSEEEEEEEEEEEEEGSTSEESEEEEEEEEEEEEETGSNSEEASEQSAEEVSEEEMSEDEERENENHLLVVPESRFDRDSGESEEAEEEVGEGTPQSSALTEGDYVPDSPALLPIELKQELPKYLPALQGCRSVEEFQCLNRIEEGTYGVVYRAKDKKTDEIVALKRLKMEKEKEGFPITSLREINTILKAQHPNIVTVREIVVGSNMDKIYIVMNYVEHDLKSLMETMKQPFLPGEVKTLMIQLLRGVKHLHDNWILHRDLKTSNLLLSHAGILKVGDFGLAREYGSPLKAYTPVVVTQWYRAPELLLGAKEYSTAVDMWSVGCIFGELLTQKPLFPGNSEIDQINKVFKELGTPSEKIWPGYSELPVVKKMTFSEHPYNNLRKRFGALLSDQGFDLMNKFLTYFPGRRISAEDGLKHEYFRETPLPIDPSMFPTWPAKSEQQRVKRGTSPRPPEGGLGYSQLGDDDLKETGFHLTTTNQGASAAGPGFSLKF

CDK2/Cyclin E1 = CDK2/Cyclin E1 (Homo sapiens, UniProt P24941); assay: NanoBRET live-cell target engagement, CDK2-NanoLuc/Cyclin E1 in HEK-293; type: binding; conditions: CDK2/E1, 10µM
CDK3/Cyclin E1 = CDK3/Cyclin E1 (Homo sapiens, UniProt Q00526); assay: NanoBRET live-cell target engagement, CDK3-NanoLuc/Cyclin E1 in HEK-293; type: binding; conditions: CDK3/E1, 10µM
CDK3/Cyclin E1, sequence (Q00526 whole entry): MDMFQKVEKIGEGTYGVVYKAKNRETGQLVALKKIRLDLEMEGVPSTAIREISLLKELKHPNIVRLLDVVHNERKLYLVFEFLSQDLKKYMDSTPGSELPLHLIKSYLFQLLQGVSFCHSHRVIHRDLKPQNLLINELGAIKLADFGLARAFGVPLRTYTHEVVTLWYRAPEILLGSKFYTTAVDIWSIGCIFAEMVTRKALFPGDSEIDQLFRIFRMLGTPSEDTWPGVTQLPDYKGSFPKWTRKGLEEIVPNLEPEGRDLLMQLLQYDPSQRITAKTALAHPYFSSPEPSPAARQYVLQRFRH
CDK3/Cyclin E1, sequence (P24864 whole entry partner): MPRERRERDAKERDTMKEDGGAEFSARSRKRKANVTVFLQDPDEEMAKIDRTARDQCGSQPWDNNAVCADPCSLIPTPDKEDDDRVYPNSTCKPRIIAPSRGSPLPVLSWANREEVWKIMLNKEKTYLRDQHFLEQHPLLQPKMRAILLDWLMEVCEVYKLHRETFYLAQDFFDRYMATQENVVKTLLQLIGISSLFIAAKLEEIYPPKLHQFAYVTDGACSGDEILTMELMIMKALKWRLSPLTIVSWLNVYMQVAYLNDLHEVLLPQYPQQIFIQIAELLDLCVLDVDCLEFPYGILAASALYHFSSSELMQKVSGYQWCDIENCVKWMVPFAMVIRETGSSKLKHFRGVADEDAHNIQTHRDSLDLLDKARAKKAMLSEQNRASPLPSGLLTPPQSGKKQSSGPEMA

CDK1/Cyclin E1 = CDK1/Cyclin E1 (Homo sapiens, UniProt P06493); assay: NanoBRET live-cell target engagement, CDK1-NanoLuc/Cyclin E1 in HEK-293; type: binding; conditions: CDK1/E1, 10µM
CDK4/Cyclin D1 = CDK4/Cyclin D1 (Homo sapiens, UniProt P11802); assay: NanoBRET live-cell target engagement, NanoLuc-CDK4/Cyclin D1 in HEK-293; type: binding; conditions: CDK4/D1, 10µM
CDK12/Cyclin K = CDK12/Cyclin K (Homo sapiens, UniProt Q9NYV4); assay: NanoBRET live-cell target engagement, CDK12-NanoLuc/Cyclin K in HEK-293; type: binding; conditions: CDK12/K, 10µM
CDK12/Cyclin K, sequence (Q9NYV4 1-1481 isoform Q9NYV4-2): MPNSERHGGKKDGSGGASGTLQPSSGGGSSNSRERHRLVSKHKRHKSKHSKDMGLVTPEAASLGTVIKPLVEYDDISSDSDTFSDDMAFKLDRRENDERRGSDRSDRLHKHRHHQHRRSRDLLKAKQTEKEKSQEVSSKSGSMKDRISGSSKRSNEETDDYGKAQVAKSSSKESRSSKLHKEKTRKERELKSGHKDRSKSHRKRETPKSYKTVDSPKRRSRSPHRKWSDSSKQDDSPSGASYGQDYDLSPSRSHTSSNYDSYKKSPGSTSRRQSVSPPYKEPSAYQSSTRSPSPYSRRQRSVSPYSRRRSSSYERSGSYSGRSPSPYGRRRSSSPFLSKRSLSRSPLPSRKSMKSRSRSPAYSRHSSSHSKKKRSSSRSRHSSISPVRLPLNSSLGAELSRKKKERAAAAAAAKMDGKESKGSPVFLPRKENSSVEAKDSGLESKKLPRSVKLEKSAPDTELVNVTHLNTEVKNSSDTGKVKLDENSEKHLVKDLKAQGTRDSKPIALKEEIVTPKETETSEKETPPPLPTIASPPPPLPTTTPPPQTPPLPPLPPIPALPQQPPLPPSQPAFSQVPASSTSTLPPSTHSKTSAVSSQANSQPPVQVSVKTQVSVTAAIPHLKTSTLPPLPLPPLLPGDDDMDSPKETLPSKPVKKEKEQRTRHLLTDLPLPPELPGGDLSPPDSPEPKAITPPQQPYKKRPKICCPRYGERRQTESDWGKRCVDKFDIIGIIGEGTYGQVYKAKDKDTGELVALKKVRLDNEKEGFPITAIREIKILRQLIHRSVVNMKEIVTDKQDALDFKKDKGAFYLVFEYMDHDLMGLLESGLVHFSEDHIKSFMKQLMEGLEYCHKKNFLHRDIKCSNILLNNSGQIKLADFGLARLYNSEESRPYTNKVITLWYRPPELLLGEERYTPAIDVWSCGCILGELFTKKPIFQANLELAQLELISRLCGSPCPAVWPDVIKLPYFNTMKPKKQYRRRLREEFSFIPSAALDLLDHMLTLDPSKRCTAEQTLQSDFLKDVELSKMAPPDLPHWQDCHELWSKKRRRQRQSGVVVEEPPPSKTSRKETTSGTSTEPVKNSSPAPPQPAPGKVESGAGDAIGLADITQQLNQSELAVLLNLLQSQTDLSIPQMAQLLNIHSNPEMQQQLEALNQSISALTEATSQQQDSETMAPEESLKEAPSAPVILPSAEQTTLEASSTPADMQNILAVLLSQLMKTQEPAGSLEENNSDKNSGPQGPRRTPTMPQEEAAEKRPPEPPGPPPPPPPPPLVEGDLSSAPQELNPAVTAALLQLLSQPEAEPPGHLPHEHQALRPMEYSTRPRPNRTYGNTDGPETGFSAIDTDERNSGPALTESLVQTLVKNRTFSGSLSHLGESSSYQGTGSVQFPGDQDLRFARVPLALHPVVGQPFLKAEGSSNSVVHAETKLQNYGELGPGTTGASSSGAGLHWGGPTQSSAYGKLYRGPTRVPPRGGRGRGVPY
CDK12/Cyclin K, sequence (O75909 whole entry partner): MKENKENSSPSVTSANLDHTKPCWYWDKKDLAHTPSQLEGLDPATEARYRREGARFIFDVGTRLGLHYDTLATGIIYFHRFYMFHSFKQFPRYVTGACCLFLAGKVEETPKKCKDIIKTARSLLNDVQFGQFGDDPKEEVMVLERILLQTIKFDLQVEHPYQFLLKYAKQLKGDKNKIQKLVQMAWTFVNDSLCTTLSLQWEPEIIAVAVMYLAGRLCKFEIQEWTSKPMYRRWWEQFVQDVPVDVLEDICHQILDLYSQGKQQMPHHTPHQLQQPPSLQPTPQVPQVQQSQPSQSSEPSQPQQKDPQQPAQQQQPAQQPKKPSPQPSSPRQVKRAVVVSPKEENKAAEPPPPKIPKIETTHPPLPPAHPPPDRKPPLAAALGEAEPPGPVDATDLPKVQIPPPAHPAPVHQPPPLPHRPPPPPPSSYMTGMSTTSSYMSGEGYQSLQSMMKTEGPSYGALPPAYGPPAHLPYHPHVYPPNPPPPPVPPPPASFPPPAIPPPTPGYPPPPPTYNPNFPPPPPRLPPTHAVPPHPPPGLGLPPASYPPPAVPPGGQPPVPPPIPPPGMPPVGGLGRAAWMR

[1] = average of replicates, read-out: Inhibition at 10µM (%) Average
[2] = read-out: Inhibition at 10µM (%) Replicate 1
[3] = read-out: Inhibition at 10µM (%) Replicate 2

CDK19/Cyclin C, sequence (Q9BWU1 whole entry): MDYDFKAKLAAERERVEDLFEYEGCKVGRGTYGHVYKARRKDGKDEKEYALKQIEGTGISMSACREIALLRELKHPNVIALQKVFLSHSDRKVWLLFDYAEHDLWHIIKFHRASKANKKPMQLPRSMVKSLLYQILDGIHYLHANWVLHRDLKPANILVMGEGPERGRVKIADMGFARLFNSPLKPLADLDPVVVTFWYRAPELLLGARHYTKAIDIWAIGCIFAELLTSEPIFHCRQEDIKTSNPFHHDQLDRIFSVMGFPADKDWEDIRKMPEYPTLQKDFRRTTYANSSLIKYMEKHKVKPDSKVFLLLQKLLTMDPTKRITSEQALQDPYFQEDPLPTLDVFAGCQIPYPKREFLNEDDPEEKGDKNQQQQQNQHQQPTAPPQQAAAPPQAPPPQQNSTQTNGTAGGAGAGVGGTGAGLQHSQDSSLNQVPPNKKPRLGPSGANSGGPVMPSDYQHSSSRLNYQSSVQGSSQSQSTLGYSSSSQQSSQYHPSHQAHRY
CDK19/Cyclin C, sequence (P24863 whole entry partner): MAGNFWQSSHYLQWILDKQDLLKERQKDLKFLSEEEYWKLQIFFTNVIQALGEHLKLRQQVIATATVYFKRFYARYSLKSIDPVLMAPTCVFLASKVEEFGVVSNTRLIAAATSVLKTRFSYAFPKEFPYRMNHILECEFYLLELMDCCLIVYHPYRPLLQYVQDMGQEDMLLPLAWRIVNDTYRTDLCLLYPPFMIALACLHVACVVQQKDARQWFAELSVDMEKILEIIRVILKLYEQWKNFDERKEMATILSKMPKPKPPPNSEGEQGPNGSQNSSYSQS

CCN1CCN(Cc2ccc(NC(=O)Nc3ccc(Oc4cc(NC)ncn4)cc3)cc2C(F)(F)F)CC1 [AST-487]
IC50 (CDK19/Cyclin C; IC50 (nM) Average*, CDK19/Y, n=3 average ± SEM, n=2 average to 2 significant figures): 25 nM | IC50 (CDK19/Cyclin C; IC50 (nM) Replicate 1, CDK19/C): 28 nM | IC50 (CDK19/Cyclin C; IC50 (nM) Replicate 2, CDK19/C): 22 nM | IC50 (CDK19/Cyclin C; IC50, [Probe 1] 0.5 µM (plot: [Probe 3]), n=1): 9.4 nM | IC50 (CDK19/Cyclin C; IC50, [Probe 1] 1 µM (plot: [Probe 3]), n=1): 10 nM | inhibition at 10 µM (CDK19/Cyclin C; read-out: Inhibition at 10µM (%) Average, CDK19/C, average of replicates): 98.4% | inhibition at 10 µM (CDK19/Cyclin C; read-out: Inhibition at 10µM (%) Replicate 1, CDK19/C): 94.2% | inhibition at 10 µM (CDK19/Cyclin C; read-out: Inhibition at 10µM (%) Replicate 2, CDK19/C): 103% | inhibition at 10 µM (CDK9/Cyclin K; [1]): 83.3% | inhibition at 10 µM (CDK9/Cyclin K; [2]): 72.3% | inhibition at 10 µM (CDK9/Cyclin K; [3]): 94.4% | inhibition at 10 µM (CDK7; [1]): 70.4% | inhibition at 10 µM (CDK7; [2]): 74.2% | inhibition at 10 µM (CDK7; [3]): 66.6% | IC50 (CDK7; n=3 average ± SEM, n=2 average to 2 significant figures, read-out: IC50 (nM) Average*): 760 nM | IC50 (CDK7; read-out: IC50 (nM) Replicate 1): 660 nM | IC50 (CDK7; read-out: IC50 (nM) Replicate 2): 860 nM | inhibition at 10 µM (CDK8/Cyclin C; CDK8/C, average of replicates, read-out: Inhibition at 10µM (%) Average): 95.7% | inhibition at 10 µM (CDK8/Cyclin C; CDK8/C, read-out: Inhibition at 10µM (%) Replicate 1): 95.7% | inhibition at 10 µM (CDK8/Cyclin C; CDK8/C, read-out: Inhibition at 10µM (%) Replicate 2): 95.7% | IC50 (CDK8/Cyclin C; CDK8/C, n=3 average ± SEM, n=2 average to 2 significant figures, read-out: IC50 (nM) Average*): 24 nM | IC50 (CDK8/Cyclin C; CDK8/C, read-out: IC50 (nM) Replicate 1): 23 nM | IC50 (CDK8/Cyclin C; CDK8/C, read-out: IC50 (nM) Replicate 2): 25 nM | IC50 (CDK8/Cyclin C; [Probe 3] 0.5 µM, n=1, read-out: IC50): 48 nM | inhibition at 10 µM (CDK11B/Cyclin L2; [1]): 10.3% | inhibition at 10 µM (CDK11B/Cyclin L2; [2]): 10.9% | inhibition at 10 µM (CDK11B/Cyclin L2; [3]): 9.7% | inhibition at 10 µM (CDK20/Cyclin H; [2]): 38.4% | inhibition at 10 µM (CDK20/Cyclin H; [3]): 80.6% | inhibition at 10 µM (CDK5/CDK5R1; [1]): 38.1% | inhibition at 10 µM (CDK5/CDK5R1; [2]): 12.7% | inhibition at 10 µM (CDK5/CDK5R1; [3]): 63.5% | inhibition at 10 µM (CDK10/Cyclin L2; read-out: Inhibition at 10µM (%) Average, CDK10/L2, average of replicates): 84.1% | inhibition at 10 µM (CDK10/Cyclin L2; read-out: Inhibition at 10µM (%) Replicate 1, CDK10/L2): 74.4% | inhibition at 10 µM (CDK10/Cyclin L2; read-out: Inhibition at 10µM (%) Replicate 2, CDK10/L2): 93.8% | inhibition at 10 µM (CDK13/Cyclin K; [1]): 47.2% | inhibition at 10 µM (CDK13/Cyclin K; [2]): 28% | inhibition at 10 µM (CDK13/Cyclin K; [3]): 66.3% | inhibition at 10 µM (CDK11A/Cyclin L2; [1]): 49% | inhibition at 10 µM (CDK11A/Cyclin L2; [2]): 22.5% | inhibition at 10 µM (CDK11A/Cyclin L2; [3]): 75.4% | inhibition at 10 µM (CDK2/Cyclin E1; [1]): 2.9% | inhibition at 10 µM (CDK2/Cyclin E1; [2]): -18.7% | inhibition at 10 µM (CDK2/Cyclin E1; [3]): 24.5% | inhibition at 10 µM (CDK3/Cyclin E1; [1]): 71.7% | inhibition at 10 µM (CDK3/Cyclin E1; [2]): 58% | inhibition at 10 µM (CDK3/Cyclin E1; [3]): 85.5% | inhibition at 10 µM (CDK1/Cyclin E1; [1]): 75.2% | inhibition at 10 µM (CDK1/Cyclin E1; [2]): 59.8% | inhibition at 10 µM (CDK1/Cyclin E1; [3]): 90.6% | inhibition at 10 µM (CDK4/Cyclin D1; [1]): 75.5% | inhibition at 10 µM (CDK4/Cyclin D1; [2]): 55.7% | inhibition at 10 µM (CDK4/Cyclin D1; [3]): 95.3% | inhibition at 10 µM (CDK12/Cyclin K; [1]): 53.4% | inhibition at 10 µM (CDK12/Cyclin K; [2]): 34.4% | inhibition at 10 µM (CDK12/Cyclin K; [3]): 72.3%
